According to paper PMC5390312, “Genetic visualization of protein interactions harnessing liquid phase transitions” (Scientific Reports, 2017):

Molecular target: T1, X-linked inhibitor of apoptosis protein (XIAP) (Homo sapiens, UniProt P98170)
T1 construct: BIR3 domain (XIAP-AG fusion); with Smac N-terminal region (SmacNT-PB1), displaced
Test: Fluoppi high-content assay in HEK293 cells, Smac/XIAP dissociation
Type: cell-based

T1 sequence (P98170 241-356 limits assumed): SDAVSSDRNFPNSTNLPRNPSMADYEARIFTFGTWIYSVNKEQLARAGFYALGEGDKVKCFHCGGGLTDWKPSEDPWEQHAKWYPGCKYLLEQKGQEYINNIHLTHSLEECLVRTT
T1 sequence (Q9NR28 56-239 partner): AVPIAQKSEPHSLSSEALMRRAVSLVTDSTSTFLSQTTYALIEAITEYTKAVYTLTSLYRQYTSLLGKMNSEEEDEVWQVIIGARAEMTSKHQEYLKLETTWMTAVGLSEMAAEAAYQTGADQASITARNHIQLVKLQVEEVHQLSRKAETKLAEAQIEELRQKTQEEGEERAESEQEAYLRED

IC50: 9.2 ± 1.2 µM
SMILES: CN[C@@H](C)C(=O)N[C@H]1CN(C(=O)CC(C)C)CC[C@H]2CC[C@@H](C(=O)NC(c3ccccc3)c3ccccc3)N2C1=O [AT-406]
